{"source": "patent US7637980B2", "about": "“Method of increasing photosynthesis in plants comprising an exposure thereof to lipochitooligosaccharides and compositions therefor” (McGill University, priority 1999, dated 2009)", "type_in_all_cases": "in vivo", "key": {"soybean (cv Bayfield) [1]": {"tested_on": "soybean (cv Bayfield)", "assay": "Photosynthesis of soybean after LCO foliar spray, greenhouse", "description": "(§1) Soybean (cv Bayfield) seeds were surface sterilized with 2% sodium hypochlorite for 3-4 minutes, washed with several changes of sterile distilled water and germinated in plastic trays containing sterile vermiculite. Seedlings at the two-leaf stage, about seven days of planting, were transplanted into 15 cm plastic pots containing promix (Premier Brands Inc., New Rochelle, N.Y., USA). Pots were placed in a greenhouse maintained at 25±2° C. with a day/night cycle of 16/8 h. Plants were watered as required.\n(§2) Concentrations of LCO (10^−6 M-10^−12 M) were made with distilled water containing 0.02% Tween 20. A control treatment, containing 0.02% Tween 20, but no LCO was also applied. Since the rates of growth and development differed among the plant species used in the experiments, spray treatment was conducted at different times after planting In general, the spray was applied when the plants were big enough to allow easy measurements of leaf photosynthetic rates. The following are the ages of the plants when the sprays were conducted: soybean 21 days after planting (DAP), corn 25 DAP, rice 45 DAP, melon (35 DAP) and canola 30 DAP. The plants were sprayed with LCO solutions until dripping. The sprays were applied with an atomizer (Nalgene, USA). Each plant required 2-3 mL of spray solution. Each treatment was replicated at least five times and organized on the green house bench in a randomized complete block design. Each experiment (with each crop species) was repeated at least twice.\n(§3) Photosynthesis was recorded every 24 h using a Li-Cor 6400 portable photosynthesis system (Li-Cor Inc., Lincoln, Neb., USA) for 6 days. In the case of soybean the photosynthesis in the second nodal leaf from the top was recorded while in the other species used in the photosynthetic rate was measured for the top-most fully expanded leaf. Soybean plants were harvested after seven days of LCO treatment and dried at 80° C. for 48 h. Data were analyzed with the Statistical Analysis System (SAS Inc., N.C., USA). Percent increase in photosynthesis over the control was calculated."}, "soybean (cv Bayfield) [2]": {"tested_on": "soybean (cv Bayfield)", "assay": "Leaf area and shoot dry weight of soybean after LCO spray, greenhouse", "details": "seven days after treatment", "description": "as §1, §2, §3"}, "[3]": {"tested_on": "corn (Zea mays cv Pioneer 3921)", "assay": "Photosynthesis of corn after LCO spray, greenhouse", "description": "(§4) Seeds of rice (Oryza sativa cv Cypress), canola (Brassica napus cv Springfield), corn (Zea mays cv Pioneer 3921) and melon (Cucumis melo cv Nova) were surface sterilized with 2% sodium hypochlorite for 3-4 min, washed with several changes of sterile distilled water and planted in plastic pots (15 cm dia) containing promix (Premier Brands Inc., New Rochelle, N.Y., USA).\nas §2, §3"}, "[4]": {"tested_on": "rice (Oryza sativa cv Cypress)", "assay": "Photosynthesis of rice after LCO spray, greenhouse", "description": "as §4, §2, §3"}, "[5]": {"tested_on": "soybean (cv OAC Bayfield)", "assay": "Photosynthesis of soybean under field conditions (1999)", "description": "The soybean experiment was conducted at the Lods Agronomy Research Centre, McGill University, Macdonald Campus, Ste-Anne-de-Bellevue, Quebec, Canada during the period June to September, 1999. A randomized complete block design with three blocks was followed. The plot size was 2×4 m with a row to row spacing of 25 cm and 10 cm between plants within a row. Seeds of soybean (cv OAC Bayfield), treated with commercial Bradyrhizobium japonicum inoculant (Bios Agriculture Inc., Quebec, Canada) at the rate of 3 g per kilogram of seed, were hand planted.\nAt 25 days after planting twenty plants in each plot were randomly marked and sprayed until dripping with LCO solutions (10^−6, 10^−8 and 10^−10M) containing 0.02% Tween 20 with a hand sprayer. The plants on either side, within the row, of the marked plants were also sprayed. A second spray was carried out at flowering stage and a third spray at pod filling.\nAs with the indoor experiments, photosynthetic readings were taken every day for five days after the application of LCO. For soybean additional developmental and agronomic data were collected. The first harvest was conducted at 25 days after the first spray treatment. Five plants were harvested from each plot and the following growth variables were analyzed: plant height, number of branches, number of leaves, leaf area, number of flower clusters, number of pods, number of nodules, dry weights of leaves, stem and roots. The final harvest was conducted after physiological maturity of the plants (Fehr et al., 1971); at this time the remaining fifteen treated plants from each plot were harvested and data on number of branches, number of pods, number of seeds and grain yield per plant was collected."}}}
{"substance": "Nod Bj V (C18:1, MeFeu)", "values": [{"measurement": "photosynthesis", "setting": "soybean (cv Bayfield) [1]; 10^−6 M, day 1 after treatment", "value": 14.9, "unit": "μmol m^−2 sec^−1"}, {"measurement": "photosynthesis", "setting": "soybean (cv Bayfield) [1]; 10^−6 M, day 2 after treatment", "value": 12.1, "unit": "μmol m^−2 sec^−1"}, {"measurement": "photosynthesis", "setting": "soybean (cv Bayfield) [1]; 10^−6 M, day 4 after treatment", "value": 16.2, "unit": "μmol m^−2 sec^−1"}, {"measurement": "photosynthesis", "setting": "soybean (cv Bayfield) [1]; 10^−6 M, day 5 after treatment", "value": 16.7, "unit": "μmol m^−2 sec^−1"}, {"measurement": "photosynthesis", "setting": "soybean (cv Bayfield) [1]; 10^−6 M, day 6 after treatment", "value": 13.1, "unit": "μmol m^−2 sec^−1"}, {"measurement": "photosynthesis", "setting": "soybean (cv Bayfield) [1]; 10^−7 M, day 1 after treatment", "value": 12.1, "unit": "μmol m^−2 sec^−1"}, {"measurement": "photosynthesis", "setting": "soybean (cv Bayfield) [1]; 10^−7 M, day 2 after treatment", "value": 9.1, "unit": "μmol m^−2 sec^−1"}, {"measurement": "photosynthesis", "setting": "soybean (cv Bayfield) [1]; 10^−7 M, day 4 after treatment", "value": 12.9, "unit": "μmol m^−2 sec^−1"}, {"measurement": "photosynthesis", "setting": "soybean (cv Bayfield) [1]; 10^−7 M, day 5 after treatment", "value": 14.1, "unit": "μmol m^−2 sec^−1"}, {"measurement": "photosynthesis", "setting": "soybean (cv Bayfield) [1]; 10^−7 M, day 6 after treatment", "value": 11.1, "unit": "μmol m^−2 sec^−1"}, {"measurement": "photosynthesis", "setting": "soybean (cv Bayfield) [1]; 10^−8 M, day 1 after treatment", "value": 13.8, "unit": "μmol m^−2 sec^−1"}, {"measurement": "photosynthesis", "setting": "soybean (cv Bayfield) [1]; 10^−8 M, day 2 after treatment", "value": 8.1, "unit": "μmol m^−2 sec^−1"}, {"measurement": "photosynthesis", "setting": "soybean (cv Bayfield) [1]; 10^−8 M, day 4 after treatment", "value": 12.3, "unit": "μmol m^−2 sec^−1"}, {"measurement": "photosynthesis", "setting": "soybean (cv Bayfield) [1]; 10^−8 M, day 5 after treatment", "value": 16.4, "unit": "μmol m^−2 sec^−1"}, {"measurement": "photosynthesis", "setting": "soybean (cv Bayfield) [1]; 10^−8 M, day 6 after treatment", "value": 10.3, "unit": "μmol m^−2 sec^−1"}, {"measurement": "photosynthesis", "setting": "soybean (cv Bayfield) [1]; 10^−9 M, day 1 after treatment", "value": 15.8, "unit": "μmol m^−2 sec^−1"}, {"measurement": "photosynthesis", "setting": "soybean (cv Bayfield) [1]; 10^−9 M, day 2 after treatment", "value": 8.4, "unit": "μmol m^−2 sec^−1"}, {"measurement": "photosynthesis", "setting": "soybean (cv Bayfield) [1]; 10^−9 M, day 4 after treatment", "value": 15.7, "unit": "μmol m^−2 sec^−1"}, {"measurement": "photosynthesis", "setting": "soybean (cv Bayfield) [1]; 10^−9 M, day 5 after treatment", "value": 17.5, "unit": "μmol m^−2 sec^−1"}, {"measurement": "photosynthesis", "setting": "soybean (cv Bayfield) [1]; 10^−9 M, day 6 after treatment", "value": 11.2, "unit": "μmol m^−2 sec^−1"}, {"measurement": "photosynthesis", "setting": "soybean (cv Bayfield) [1]; 10^−10 M, day 1 after treatment", "value": 13.6, "unit": "μmol m^−2 sec^−1"}, {"measurement": "photosynthesis", "setting": "soybean (cv Bayfield) [1]; 10^−10 M, day 2 after treatment", "value": 8.7, "unit": "μmol m^−2 sec^−1"}, {"measurement": "photosynthesis", "setting": "soybean (cv Bayfield) [1]; 10^−10 M, day 4 after treatment", "value": 14.6, "unit": "μmol m^−2 sec^−1"}, {"measurement": "photosynthesis", "setting": "soybean (cv Bayfield) [1]; 10^−10 M, day 5 after treatment", "value": 16.9, "unit": "μmol m^−2 sec^−1"}, {"measurement": "photosynthesis", "setting": "soybean (cv Bayfield) [1]; 10^−10 M, day 6 after treatment", "value": 11.2, "unit": "μmol m^−2 sec^−1"}, {"measurement": "photosynthesis", "setting": "soybean (cv Bayfield) [1]; 10^−11 M, day 1 after treatment", "value": 14.0, "unit": "μmol m^−2 sec^−1"}, {"measurement": "photosynthesis", "setting": "soybean (cv Bayfield) [1]; 10^−11 M, day 2 after treatment", "value": 8.7, "unit": "μmol m^−2 sec^−1"}, {"measurement": "photosynthesis", "setting": "soybean (cv Bayfield) [1]; 10^−11 M, day 4 after treatment", "value": 17.4, "unit": "μmol m^−2 sec^−1"}, {"measurement": "photosynthesis", "setting": "soybean (cv Bayfield) [1]; 10^−11 M, day 5 after treatment", "value": 17.9, "unit": "μmol m^−2 sec^−1"}, {"measurement": "photosynthesis", "setting": "soybean (cv Bayfield) [1]; 10^−11 M, day 6 after treatment", "value": 12.5, "unit": "μmol m^−2 sec^−1"}, {"measurement": "photosynthesis", "setting": "soybean (cv Bayfield) [1]; 10^−12 M, day 1 after treatment", "value": 15.0, "unit": "μmol m^−2 sec^−1"}, {"measurement": "photosynthesis", "setting": "soybean (cv Bayfield) [1]; 10^−12 M, day 2 after treatment", "value": 10.3, "unit": "μmol m^−2 sec^−1"}, {"measurement": "photosynthesis", "setting": "soybean (cv Bayfield) [1]; 10^−12 M, day 4 after treatment", "value": 16.9, "unit": "μmol m^−2 sec^−1"}, {"measurement": "photosynthesis", "setting": "soybean (cv Bayfield) [1]; 10^−12 M, day 5 after treatment", "value": 17.0, "unit": "μmol m^−2 sec^−1"}, {"measurement": "photosynthesis", "setting": "soybean (cv Bayfield) [1]; 10^−12 M, day 6 after treatment", "value": 12.0, "unit": "μmol m^−2 sec^−1"}, {"measurement": "increase in photosynthetic rate", "setting": "soybean (cv Bayfield) [1]; LCO spray, greenhouse, on an average", "value": 50, "unit": "%"}, {"measurement": "Leaf area", "setting": "soybean (cv Bayfield) [2]; 10^−6 M", "value": 223.6, "unit": "cm^2"}, {"measurement": "Shoot dry weight", "setting": "soybean (cv Bayfield) [2]; 10^−6 M", "value": 1065.8, "unit": "mg"}, {"measurement": "Leaf area", "setting": "soybean (cv Bayfield) [2]; 10^−7 M", "value": 193.6, "unit": "cm^2"}, {"measurement": "Shoot dry weight", "setting": "soybean (cv Bayfield) [2]; 10^−7 M", "value": 1135.2, "unit": "mg"}, {"measurement": "Leaf area", "setting": "soybean (cv Bayfield) [2]; 10^−8 M", "value": 217.6, "unit": "cm^2"}, {"measurement": "Shoot dry weight", "setting": "soybean (cv Bayfield) [2]; 10^−8 M", "value": 1095.7, "unit": "mg"}, {"measurement": "Leaf area", "setting": "soybean (cv Bayfield) [2]; 10^−9 M", "value": 194.3, "unit": "cm^2"}, {"measurement": "Shoot dry weight", "setting": "soybean (cv Bayfield) [2]; 10^−9 M", "value": 999.9, "unit": "mg"}, {"measurement": "Leaf area", "setting": "soybean (cv Bayfield) [2]; 10^−10 M", "value": 195.3, "unit": "cm^2"}, {"measurement": "Shoot dry weight", "setting": "soybean (cv Bayfield) [2]; 10^−10 M", "value": 1012.3, "unit": "mg"}, {"measurement": "Leaf area", "setting": "soybean (cv Bayfield) [2]; 10^−11 M", "value": 202.6, "unit": "cm^2"}, {"measurement": "Shoot dry weight", "setting": "soybean (cv Bayfield) [2]; 10^−11 M", "value": 931.6, "unit": "mg"}, {"measurement": "Leaf area", "setting": "soybean (cv Bayfield) [2]; 10^−12 M", "value": 230.3, "unit": "cm^2"}, {"measurement": "Shoot dry weight", "setting": "soybean (cv Bayfield) [2]; 10^−12 M", "value": 1060.8, "unit": "mg"}, {"measurement": "shoot dry weights vs control plants", "setting": "soybean (cv Bayfield) [2]; p<0.05", "value": "higher"}, {"measurement": "leaf areas vs control plants", "setting": "soybean (cv Bayfield) [2]; p=0.09", "value": "only increased numerically"}, {"measurement": "leaf internal CO2 concentration", "setting": "[3]", "value": "decreased"}, {"measurement": "stomatal aperture", "setting": "[3]", "value": "did not significantly alter"}, {"measurement": "increase in photosynthesis", "setting": "[3]; in general", "value": "10-20%"}, {"measurement": "intercellular CO2 concentration", "setting": "[4]", "value": "unaffected"}, {"measurement": "stomatal conductance", "setting": "[4]", "value": "increases"}, {"measurement": "transpiration", "setting": "[4]", "value": "increases"}, {"measurement": "increase in photosynthesis", "setting": "[4]; in general", "value": "10-20%"}, {"measurement": "stomatal conductance", "setting": "[5]", "value": "increases"}, {"measurement": "transpiration", "setting": "[5]", "value": "increased"}, {"measurement": "photosynthetic rate", "setting": "[5]; 10^−6 M, day three", "value": 24, "unit": "µmol m^−2 s^−1"}]}
